How the values were obtained:
[1] = test system: human mammary carcinoma which expresses EGF receptor tyrosine kinase; conditions: athymic nude mice; cited from earlier work
[2] = test system: another carcinoma which does not express EGF receptor tyrosine kinase; conditions: cited from earlier work
[3] = biological target: T1, EGF receptor tyrosine kinase (Homo sapiens, UniProt P00533); assay: in vitro assay, inhibition of EGF receptor tyrosine kinase (test (a)); type: biochemical, human (A-431 cells, derived from human vulval carcinoma); conditions: approximately
T1 construct: Receptor tyrosine kinase was obtained in partially purified form from A-431 cells; endogenous in cells; host or cells: A-431 cells (human vulval carcinoma)
T1 sequence (P00533 25-1210): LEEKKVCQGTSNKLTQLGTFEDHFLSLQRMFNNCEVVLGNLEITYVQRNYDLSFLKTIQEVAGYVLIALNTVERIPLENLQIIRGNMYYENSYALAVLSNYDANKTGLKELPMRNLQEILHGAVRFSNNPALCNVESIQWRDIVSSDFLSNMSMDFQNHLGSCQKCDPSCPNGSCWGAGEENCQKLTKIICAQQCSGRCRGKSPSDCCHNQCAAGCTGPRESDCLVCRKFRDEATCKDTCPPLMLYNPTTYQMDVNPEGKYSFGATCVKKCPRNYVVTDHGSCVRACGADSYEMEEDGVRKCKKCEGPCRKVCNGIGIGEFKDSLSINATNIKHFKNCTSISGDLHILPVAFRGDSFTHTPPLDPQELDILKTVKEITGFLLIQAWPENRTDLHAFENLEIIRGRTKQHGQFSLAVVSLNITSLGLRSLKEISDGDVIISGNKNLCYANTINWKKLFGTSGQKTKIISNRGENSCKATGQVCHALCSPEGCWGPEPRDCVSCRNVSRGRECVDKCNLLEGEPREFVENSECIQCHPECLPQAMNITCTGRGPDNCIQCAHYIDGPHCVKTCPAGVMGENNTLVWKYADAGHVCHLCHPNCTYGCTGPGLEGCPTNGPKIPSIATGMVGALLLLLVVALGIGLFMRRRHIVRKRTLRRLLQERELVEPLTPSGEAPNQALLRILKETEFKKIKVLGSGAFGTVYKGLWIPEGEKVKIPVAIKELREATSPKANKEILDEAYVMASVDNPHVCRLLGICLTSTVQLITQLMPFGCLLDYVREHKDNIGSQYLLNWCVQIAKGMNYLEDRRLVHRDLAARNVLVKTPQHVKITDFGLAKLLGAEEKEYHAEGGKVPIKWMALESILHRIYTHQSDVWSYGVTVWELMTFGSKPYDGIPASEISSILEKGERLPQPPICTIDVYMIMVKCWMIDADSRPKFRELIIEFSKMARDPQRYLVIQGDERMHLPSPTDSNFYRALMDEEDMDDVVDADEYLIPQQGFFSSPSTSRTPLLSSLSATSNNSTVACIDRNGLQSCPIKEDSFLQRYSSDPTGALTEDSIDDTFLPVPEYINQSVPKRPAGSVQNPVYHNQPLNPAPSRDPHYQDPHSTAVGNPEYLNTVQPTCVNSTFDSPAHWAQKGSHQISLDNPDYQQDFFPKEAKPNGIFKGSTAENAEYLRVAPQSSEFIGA
Experimental: (a) An in vitro assay which determines the ability of a test compound to inhibit the enzyme EGF receptor tyrosine kinase. Receptor tyrosine kinase was obtained in partially purified form from A-431 cells (derived from human vulval carcinoma) by the procedures described below which are related to those described by Carpenter et al., J. Biol. Chem., 1979. 254, 4884, Cohen et al., J. Biol. Chem., 1982, 257, 1523 and by Braun et al., J. Biol. Chem., 1984, 259, 2051.
A-431 cells were grown to confluence using Dulbecco's modified Eagle's medium (DMEM) containing 5% fetal calf serum (FCS). The obtained cells were homogenised in a hypotonic borate/EDTA buffer at pH 10.1. The homogenate was centrifuged at 400 g for 10 minutes at 0-4° C. The supernatant was centrifuged at 25,000 g for 30 minutes at 0-4° C. […]
The test compound/EGF mixture solution (5 μl) was added to the test enzyme solution (10 μl) and the mixture was incubated at 0-4° C. for 30 minutes. […] Radioactivity present in the filter paper was measured using a liquid scintillation counter (Sequence A). […]
Receptor tyrosine kinase inhibition was calculated as follows: [formula]
The extent of inhibition was then determined at a range of concentrations of test compound to give an IC50 value.

[4] = test system: human naso-pharyngeal cancer cell line KB; assay: in vitro assay, inhibition of EGF-stimulated growth of the human naso-pharyngeal cancer cell line KB (test (b)); type: cell-based; conditions: 72 h, KB cells, 3 days, approximately
Experimental: (b) An in vitro assay which determines the ability of a test compound to inhibit the EGF-stimulated growth of the human naso-pharyngeal cancer cell line KB.
KB cells were seeded into wells at a density of 1×10^4 -1.5×10^4 cells per well and grown for 24 hours in DMEM supplemented with 5% FCS (charcoal-stripped). Cell growth was determined after incubation for 3 days by the extent of metabolism of MTT tetrazolium dye to furnish a bluish colour. Cell growth was then determined in the presence of EGF (10 ng/ml) or in the presence of EGF (10 ng/ml) and a test compound at a range of concentrations. An ICSO value could then be calculated.

[5] = test system: human vulval epidermoid carcinoma cell line A-431; assay: in vivo assay, inhibition of growth of A-431 xenografts in athymic nude mice (test (c)); design: species or system human xenografts in athymic nude mice (strain ONU:Alpk); conditions: daily dose of 50 mg/kg; usually oral; relative to untreated controls
Experimental: (c) An in-vivo assay in a group of athymic nude mice (strain ONU:Alpk) which determines the ability of a test compound (usually administered orally as a ball-milled suspension in 0.5% polysorbate) to inhibit the growth of xenografts of the human vulval epidermoid carcinoma cell line A-431. A-431 cells were maintained in culture in DMEM supplemented with 5% FCS and 2 mM glutamine. Freshly cultured cells were harvested by trypsinization and injected subcutaneously (10 million cells/0.1 ml/mouse) into both flanks of a number of donor nude mice. When sufficient tumour material was available (after approximately 9 to 14 days), fragments of tumour tissue were transplanted in the flanks of recipient nude mice (test day 0). Generally, on the seventh day after transplantation (test day 7) groups of 7 to 10 mice with similar-sized tumours were selected and dosing of the test compound was commenced. Once daily dosing of test compound was continued for a total of 13 days (test days 7 to 19 inclusive). In some studies the dosing of the test compound was continued beyond test day 19, for example to test day 26. In each case, on the following test day the animals were killed and the final tumour volume was calculated from measurements of the length and width of the tumours. Results were calculated as a percentage inhibition of tumour volume relative to untreated controls.

O=CN/C=C/c1cc(O)ccc1O [erbstatin]
growth of transplanted human mammary carcinoma [1]: specifically attenuates the growth | growth of another carcinoma [2]: without effect on the growth

Fc1ccc(Nc2ncnc3ccc(NCCCN4CCCC4)cc23)cc1Cl [Example 1, 4-(3'-chloro-4'-fluoroanilino)-6-[3-(pyrrolidin-1-yl)propylamino]quinazoline]
IC50 [3]: ~76 nM | IC50 [4]: ~60 nM | inhibition of tumour volume, test (c) [5]: greater than 50%
